From patent EP4692086A1, “ANTICOAGULATION REVERSAL AGENT, AND PREPARATION METHOD THEREFOR AND USE THEREOF” (Shaanxi Micot Pharmaceutical Technology Co., Ltd., priority 2023, dated 2024)

Columns and labels:
Format in all cases: in vivo, SD rats
warfarin-induced rats [1] = assay: Hepatic laceration hemorrhage model, antagonizing warfarin; conditions: for Hepatic Laceration Bleeding Loss: jugular vein injection, bleeding loss over 30 min; for Inhibition Rate: hepatic laceration bleeding loss, vs Vehicle (warfarin)
Description: Hepatic laceration hemorrhage model: In all groups except for Control group and Compound 1 20 mg/kg+N.S. control group, SD rats were administered warfarin by oral gavage once daily for 3 consecutive days. 30 min after the final administration, the rats were injected with 10% chloral hydrate via intraperitoneal injection. The anaesthetized animals were placed on an electric heating blanket preheated to 37°C. Jugular vein was isolated and cannulated within 30 min. Aspirin was administered and 30 min later, test substances were injected via the jugular vein. 5 min after injection, the abdominal cavity was opened, and 3 standard incisions, each with a length of 1 cm and a depth of 2 mm, were made on the liver. Blood flowing from the liver was absorbed with pre-weighed dry cotton, and bleeding loss (BL) over 30 min was recorded.

warfarin-induced rats [2] = assay: Tail transection hemorrhage model, antagonizing warfarin (bleeding loss and WBCT); conditions: for Tail Transection Bleeding Loss: jugular vein injection, bleeding loss over 15 min
Description: Tail transection hemorrhage model: In all groups except for Control group and Compound 1 20 mg/kg+N.S. control group, SD rats were administered warfarin by oral gavage once daily for 3 consecutive days. 30 min after the final administration, the rats were injected with 10% chloral hydrate via intraperitoneal injection. The anaesthetized animals were placed on an electric heating blanket preheated to 37°C. Jugular vein was isolated and cannulated within 30 min. Normal saline or drug was injected via the jugular vein. 5 min after injection, a transection was made 5 mm away from the tip of the rat's tail. Bleeding loss (BL) over 15 min was recorded. At the end of the experiment, blood was collected from the abdominal cavity and WBCT was measured. Temperatures including room temperature and water bath temperature were strictly controlled throughout the experiment.

heparin-induced rats [3] = assay: Tail transection hemorrhage model, antagonizing heparin; conditions: bleeding loss over 15 min
Description: (§1) Tail transection hemorrhage model: […] The anaesthetized animals were placed on an electric heating blanket preheated to 37°C. Jugular vein was isolated and cannulated within 30 min. Normal saline or drug was injected via the jugular vein. 5 min after injection, a transection was made 5 mm away from the tip of the rat's tail. Bleeding loss (BL) over 15 min was recorded. Temperatures including room temperature and water bath temperature were strictly controlled throughout the experiment.

heparin-induced rats [4] = assay: Hepatic laceration hemorrhage model, antagonizing heparin; conditions: for Hepatic Laceration Bleeding Loss: bleeding loss over 30 min
enoxaparin-induced rats [5] = assay: Tail transection hemorrhage model, antagonizing enoxaparin; conditions: bleeding loss over 15 min
Description: as §1

enoxaparin-induced rats [6] = assay: Hepatic laceration hemorrhage model, antagonizing enoxaparin; conditions: for Hepatic Laceration Bleeding Loss: bleeding loss over 30 min; for Inhibition Rate: hepatic laceration bleeding loss, vs Vehicle (enoxaparin)
[7] = 20 mg/kg+warfarin, blood collected at the end of the experiment
[8] = 10 mg/kg+heparin, listed as compound 1
[9] = 5 mg/kg+enoxaparin, listed as compound 1
[10] = Rattus norvegicus, read-out: Inhibition Rate

## N=C(N)NCCCC(N)C(=O)NCCCn1c(=O)c2c(ncn2CCCNC(=O)C(N)CCCNC(=N)N)n(CCCNC(=O)C(N)CCCNC(=N)N)c1=O (stereo not drawn) [Compound 1]
warfarin-induced rats [1]; 5 mg/kg+warfarin
  Hepatic Laceration Bleeding Loss: 0.3029 ± 0.1189 g
  Inhibition Rate: -7.9
warfarin-induced rats [1]; 10 mg/kg+warfarin
  Hepatic Laceration Bleeding Loss: 0.2379 ± 0.1613 g
  Inhibition Rate: 15.3
warfarin-induced rats [1]; 20 mg/kg+warfarin, compared to the Vehicle group
  inhibited hepatic laceration bleeding loss: 72.1%
warfarin-induced rats [1]; 20 mg/kg+warfarin
  Hepatic Laceration Bleeding Loss: 0.0784 ± 0.0346 g
  Inhibition Rate: 72.1
warfarin-induced rats [2]; 20 mg/kg+N.S. (no warfarin), compared to the Control group
  WBCT: no significant changes
warfarin-induced rats [2]; [7]
  WBCT: 490 ± 99 s
warfarin-induced rats [2]; 20 mg/kg+warfarin, blood collected at the end of the experiment, listed as compound 1
  WBCT: significantly shortened
warfarin-induced rats [2]; 20 mg/kg+warfarin
  Tail Transection Bleeding Loss: 0.0143 ± 0.0108 g
warfarin-induced rats [2]; 20 mg/kg+warfarin, listed as compound 1
  Tail Transection Bleeding Loss: significantly reduced
heparin-induced rats [3]; 5 mg/kg+heparin
  Tail Transection Bleeding Loss: 38.3625 ± 12.6991 mg
heparin-induced rats [3]; 10 mg/kg+heparin
  Tail Transection Bleeding Loss: 19.9375 ± 22.3215 mg
heparin-induced rats [3]; [8]
  Tail Transection Bleeding Loss: significantly reduced
heparin-induced rats [3]; 20 mg/kg+heparin
  Tail Transection Bleeding Loss: 12.1125 ± 6.6714 mg
heparin-induced rats [4]; 5 mg/kg+heparin
  Hepatic Laceration Bleeding Loss: 0.3217 ± 0.0919 g
heparin-induced rats [4]; 10 mg/kg compound 1 (so in the source)+heparin, compared to the Vehicle group
  inhibition rate for hepatic laceration bleeding loss: 88.9%
heparin-induced rats [4]; 10 mg/kg+heparin
  Hepatic Laceration Bleeding Loss: 0.1794+0.0966 g
heparin-induced rats [4]; [8]
  Hepatic Laceration Bleeding Loss: significantly reduced
heparin-induced rats [4]; 20 mg/kg+heparin
  Hepatic Laceration Bleeding Loss: 0.0560+0.0408 g
enoxaparin-induced rats [5]; 0.2 mg/kg+enoxaparin
  Tail Transection Bleeding Loss: 0.0903 ± 0.0426 g
enoxaparin-induced rats [5]; 1 mg/kg+enoxaparin
  Tail Transection Bleeding Loss: 0.0302 ± 0.0147 g
enoxaparin-induced rats [5]; 5 mg/kg+enoxaparin
  Tail Transection Bleeding Loss: 0.0158 ± 0.0083 g
enoxaparin-induced rats [5]; [9]
  Tail Transection Bleeding Loss: superior to the 20 mg/kg PER977 group
enoxaparin-induced rats [6]; 0.2 mg/kg+enoxaparin
  Hepatic Laceration Bleeding Loss: 0.5253 ± 0.2034 g
  Inhibition Rate: -17.1%
enoxaparin-induced rats [6]; 1 mg/kg+enoxaparin
  Hepatic Laceration Bleeding Loss: 0.1674 ± 0.0734 g
  Inhibition Rate: 62.7%
enoxaparin-induced rats [6]; 1 mg/kg+enoxaparin, listed as compound 1
  Hepatic Laceration Bleeding Loss: significantly reduced
enoxaparin-induced rats [6]; 5 mg/kg+enoxaparin
  Hepatic Laceration Bleeding Loss: 0.0490 ± 0.0184 g
  Inhibition Rate: 89.1%
enoxaparin-induced rats [6]; [9]
  Hepatic Laceration Bleeding Loss: significantly reduced

## N=C(N)NCCC[C@H](N)C(=O)NCCCN1CCN(CCCNC(=O)[C@@H](N)CCCNC(=N)N)CC1 [PER977, diarginine piperazine, reference compound]
warfarin-induced rats [1]; 20 mg/kg+warfarin
  Hepatic Laceration Bleeding Loss: 0.0874 ± 0.0292 g
warfarin-induced rats [1]; [10]
  inhibition at 20 mg/kg: 68.9%
warfarin-induced rats [2]; [7]
  WBCT: 471 ± 101 s
warfarin-induced rats [2]; 20 mg/kg+warfarin
  Tail Transection Bleeding Loss: 0.0276 ± 0.0123 g
heparin-induced rats [3]; 20 mg/kg+heparin
  Tail Transection Bleeding Loss: 17.9000 ± 11.6004 mg
heparin-induced rats [4]; 20 mg/kg+heparin
  Hepatic Laceration Bleeding Loss: 0.0511 ± 0.0444 g
enoxaparin-induced rats [5]; 20 mg/kg+enoxaparin
  Tail Transection Bleeding Loss: 0.0228 ± 0.0155 g
enoxaparin-induced rats [6]; 20 mg/kg+enoxaparin
  Hepatic Laceration Bleeding Loss: 0.0420 ± 0.0244 g
enoxaparin-induced rats [6]; [10]
  inhibition at 20 mg/kg: 90.6%
